Assay: Stopped-flow spectrophotometric analysis of kinetics of peroxynitrite decomposition
Format: biochemical
Details: 100 mM phosphate buffer pH 7.4, 25° C.
Source text: Peroxynitrite was synthesized from hydrogen peroxide and nitrous acid using an sp250i syringe pump by modification of published procedures. See, Shimanovich, R.; Groves, J. T., Mechanisms of Peroxynitrite Decomposition Catalyzed by FeTMPS, a Bioactive Sulfonated Iron Porphyrin. Archives of Biochemistry and Biophysics 2001, 387, (2), 307-317; Saha, A.; Goldstein, S.; Cabelli, D.; Czapski, G., Determination of optimal conditions for synthesis of peroxynitrite by mixing acidified hydrogen peroxide with nitrite. Free Radical Biology & Medicine 1998, 24, (4), 653-659; and Uppu, R. M.; Squadrito, G. L.; Cueto, R.; Pryor, W. A., Selecting the most appropriate synthesis of peroxynitrite. […] Peroxynitrite concentrations were determined spectrophotometrically at 302 nm (ε302=1670 L mol^−1 cm^−1). […] In this manner, the concentration of peroxynitrite was determined to be 95 mM. […] Nitrite and nitrate anions were detected and quantified by measuring the absorbance decrease (indirect UV detection) at 310 nm. […] Concentrations of hydrogen peroxide in the peroxynitrite before and after treatment with MnO2 were measured by PeroXOquant Quantitative peroxide assay kit (Pierce Biotechnology), an assay based on the oxidation of Fe^2+ to Fe^3+ by H2O2 under acidic conditions. […]

Q: With “iron(III) chloride meso-tetrakis-2(N-(N-(2-methoxyethyl)acetamido)pyridyl porphyrin [Test porphyrin]” as the substance, how does the kcat read?
A: Its kcat is 1.4e+07 M⁻¹ s⁻¹.
